Test results from the supplement of paper PMC9663587.

What was measured:
[1] = system: PDX1258; test: area over the GR curve, 72 h; higher = more effect;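 also: Dye Drop or Deep Dye Drop imaging of viable cells in 384-well plates (Hoechst nuclei, LIVE/DEAD dye), nine half-log doses, GR normalized to DMSO controls and time-zero plates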
[2] = system: MCF10A; test: area over the GR curve, 72 h; higher = more effect;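 also: Dye Drop or Deep Dye Drop imaging of viable cells in 384-well plates (Hoechst nuclei, LIVE/DEAD dye), nine half-log doses, GR normalized to DMSO controls and time-zero plates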
[3] = system: CAL120; test: area over the GR curve, 72 h; higher = more effect;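 also: Dye Drop or Deep Dye Drop imaging of viable cells in 384-well plates (Hoechst nuclei, LIVE/DEAD dye), nine half-log doses, GR normalized to DMSO controls and time-zero plates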
[4] = system: CAL851; test: GRmax, 72 h; higher = less effect;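 also: breast cell lines in 384-well plates, nine doses across a 10^4 range, Dye Drop imaging of viable cells vs DMSO and time-zero plates, GR 0 means no net growth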
[5] = system: UACC812; test: GRmax, 72 h; higher = less effect;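 also: breast cell lines in 384-well plates, nine doses across a 10^4 range, Dye Drop imaging of viable cells vs DMSO and time-zero plates, GR 0 means no net growth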
[6] = system: CAL51; test: GRmax, 72 h; higher = less effect;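 also: breast cell lines in 384-well plates, nine doses across a 10^4 range, Dye Drop imaging of viable cells vs DMSO and time-zero plates, GR 0 means no net growth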
[7] = system: BT474; test: GRmax, 72 h; higher = less effect;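 also: breast cell lines in 384-well plates, nine doses across a 10^4 range, Dye Drop imaging of viable cells vs DMSO and time-zero plates, GR 0 means no net growth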
[8] = system: CAMA1; test: GRmax, 72 h; higher = less effect
[9] = system: SUM44PE; test: GRmax, 72 h; higher = less effect
[10] = system: UACC893; test: GRmax, 72 h; higher = less effect
[11] = system: HCC70; test: GRmax, 72 h; higher = less effect
[12] = system: HCC1143; test: GRmax, 72 h; higher = less effect

Structure (SMILES)	area over the GR curve [1] [GR]	area over the GR curve [2] [GR]	area over the GR curve [3] [GR]	GRmax, 72 h [4] [GR]	GRmax, 72 h [5] [GR]	GRmax, 72 h [6] [GR]	GRmax, 72 h [7] [GR]	GRmax, 72 h [8] [GR]	GRmax, 72 h [9] [GR]	GRmax, 72 h [10] [GR]	GRmax, 72 h [11] [GR]	GRmax, 72 h [12] [GR]	area over the GR curve ([1]; main component drawn) [GR]	area over the GR curve ([2]; main component drawn) [GR]	area over the GR curve ([3]; main component drawn) [GR]	GRmax, 72 h ([4]; main component drawn) [GR]	GRmax, 72 h ([6]; main component drawn) [GR]	GRmax, 72 h ([8]; main component drawn) [GR]	GRmax, 72 h ([11]; main component drawn) [GR]	GRmax, 72 h ([12]; main component drawn) [GR]
C[C@@H]1COCCN1c1cc(C2([S@](C)(=N)=O)CC2)nc(-c2cc[nH]c3nccc2-3)n1 [AZD6738] (max 10 µM)	0.0598	0.0334	-0.169	0.144	0.305	0.0335	0.267	0.25	-0.206	0.429	-0.532	-0.0627	–	–	–	–	–	–	–	–
NC(=O)Nc1cc(-c2cccc(F)c2)sc1C(=O)N[C@H]1CCCNC1 [AZD7762] (max 10 µM)	0.909	0.225	0.492	-0.322	-0.8	-0.519	0.0014	-0.0865	-0.704	-0.308	-0.7	-0.369	–	–	–	–	–	–	–	–
Cc1nc(NC(=O)N2CCC[C@H]2C(N)=O)sc1-c1ccnc(C(C)(C)C(F)(F)F)c1 [Alpelisib/BYL719] (max 10 µM)	0.0534	0.113	0.0922	0.293	-0.0521	0.344	-0.809	0.979	-0.341	-0.757	0.0981	0.48	–	–	–	–	–	–	–	–
CN(C)C/C=C/C(=O)Nc1ccc(O[C@@H]2CCC[C@@H](Nc3ncc(Cl)c(-c4c[nH]c5ccccc45)n3)C2)cc1 [BSJ-01-175] (max 10 µM)	1.3	0.3	0.667	-0.535	-0.92	-0.368	-0.962	-0.712	-0.873	-0.904	-0.884	-0.449	–	–	–	–	–	–	–	–
CC(=O)c1c(C)c2cnc(Nc3ccc(N4CCN(CCOCCOCCOCCNC(=O)COc5cccc6c5C(=O)N(C5CCC(=O)NC5=O)C6=O)CC4)cn3)nc2n(C2CCCC2)c1=O (stereo not drawn) [BSJ-03-123] (max 10 µM)	0.0283	0.323	0.16	-0.208	-0.312	0.146	-0.0209	0.0546	0.289	0.289	-0.513	-0.0159	–	–	–	–	–	–	–	–
CC(C)Nc1cc(-c2c[nH]c(C(=O)N[C@H](CO)c3cccc(Cl)c3)c2)c(Cl)cn1 [BVD523] (max 10 µM)	0.149	0.311	0.108	0.274	0.176	0.759	0.977	0.156	-0.0062	0.274	0.461	0.0829	–	–	–	–	–	–	–	–
Cc1c(N)nc([C@H](CC(N)=O)NC[C@H](N)C(N)=O)nc1C(=O)N[C@H](C(=O)N[C@H](C)[C@@H](O)[C@H](C)C(=O)N[C@H](C(=O)NCCc1nc(-c2nc(C(=O)NCCC[S+](C)C)cs2)cs1)[C@@H](C)O)[C@@H](OC1OC(CO)C(O)C(O)C1OC1OC(CO)C(O)C(OC(N)=O)C1O)c1cnc[nH]1 (stereo partly drawn) [Bleomycin] (max 10 µM)	–	–	–	–	–	–	–	–	–	–	–	–	0.295	0.449	0.232	-0.107	-0.134	-0.0365	-0.115	-0.208
Nc1cc(C(F)(F)F)c(-c2cc(N3CCOCC3)nc(N3CCOCC3)n2)cn1 [Buparlisib/NVP-BKM120] (max 10 µM)	0.245	0.249	0.339	-0.32	-0.822	-0.388	-0.851	-0.422	-0.611	-0.833	-0.727	-0.436	–	–	–	–	–	–	–	–
COc1cc2nccc(Oc3ccc(NC(=O)C4(C(=O)Nc5ccc(F)cc5)CC4)cc3)c2cc1OC [Cabozantinib] (max 10 µM)	0.0204	-0.0114	0.0847	0.173	0.298	0.306	0.647	0.244	0.288	0.735	-0.0911	0.512	–	–	–	–	–	–	–	–
COc1cc2c(Oc3ccc4[nH]c(C)cc4c3F)ncnc2cc1OCCCN1CCCC1 [Cediranib/AZD2171] (max 10 µM)	0.0493	0.031	0.299	-0.238	-0.575	-0.103	0.742	-0.292	0.417	-0.458	-0.326	0.0093	–	–	–	–	–	–	–	–
Cc1cc(Nc2ncc(Cl)c(Nc3ccccc3S(=O)(=O)C(C)C)n2)c(OC(C)C)cc1C1CCNCC1 [Ceritinib/LDK378] (max 10 µM)	0.199	0.184	0.337	-0.596	-0.983	-0.476	1.18	-0.699	-0.32	0.807	-0.881	-0.422	–	–	–	–	–	–	–	–
N.N.[Cl][Pt][Cl] [Cisplatin] (max 10 µM)	0.155	0.0952	0.182	0.018	–	-0.0329	–	-0.0042	–	–	-0.683	0.0754	–	–	–	–	–	–	–	–
Cc1nc(Nc2ncc(C(=O)Nc3c(C)cccc3Cl)s2)cc(N2CCN(CCO)CC2)n1 [Dasatinib] (max 10 µM)	0.714	0.339	0.519	-0.244	-0.714	0.0983	-0.42	0.679	0.47	0.706	-0.579	0.257	–	–	–	–	–	–	–	–
COc1cccc2c1C(=O)c1c(O)c3c(c(O)c1C2=O)C[C@@](O)(C(=O)CO)C[C@@H]3O[C@H]1C[C@H](N)[C@H](O)[C@H](C)O1 [Doxorubicin] (max 3.162 µM)	0.754	0.655	0.697	-0.378	-0.919	-0.48	-0.605	-0.652	-0.677	-0.405	-0.779	-0.251	–	–	–	–	–	–	–	–
COc1cc([C@@H]2c3cc4c(cc3[C@@H](O[C@@H]3O[C@@H]5CO[C@@H](C)O[C@H]5[C@H](O)[C@H]3O)[C@H]3COC(=O)[C@H]23)OCO4)cc(OC)c1O [Etoposide] (max 10 µM)	0.394	0.415	0.381	-0.241	–	-0.21	–	-0.448	–	–	-0.152	-0.166	–	–	–	–	–	–	–	–
CO[C@H]1C[C@@H]2CC[C@@H](C)[C@@](O)(O2)C(=O)C(=O)N2CCCC[C@H]2C(=O)O[C@H]([C@H](C)C[C@@H]2CC[C@@H](OCCO)[C@H](OC)C2)CC(=O)[C@H](C)/C=C(\C)[C@@H](O)[C@@H](OC)C(=O)[C@H](C)C[C@H](C)/C=C/C=C/C=C/1C [Everolimus] (max 10 µM)	0.307	0.113	0.416	0.371	-0.0713	0.548	0.14	0.164	0.19	0.159	0.373	0.557	–	–	–	–	–	–	–	–
CC[C@@]1(O)C(=O)OCc2c1cc1n(c2=O)Cc2cc3c(CN(C)C)c(O)ccc3nc2-1 [Topotecan] (max 10 µM)	0.867	0.765	0.913	-0.296	–	-0.53	–	-0.423	–	–	-0.861	-0.43	–	–	–	–	–	–	–	–
